In BindingDB's records for doi:10.1021/jm3014635 (University of Nottingham, 2013):

Target: T1, Accessory gene regulator protein A (Staphylococcus aureus, UniProt P0A0I7)
T1 sequence (P0A0I7 whole entry): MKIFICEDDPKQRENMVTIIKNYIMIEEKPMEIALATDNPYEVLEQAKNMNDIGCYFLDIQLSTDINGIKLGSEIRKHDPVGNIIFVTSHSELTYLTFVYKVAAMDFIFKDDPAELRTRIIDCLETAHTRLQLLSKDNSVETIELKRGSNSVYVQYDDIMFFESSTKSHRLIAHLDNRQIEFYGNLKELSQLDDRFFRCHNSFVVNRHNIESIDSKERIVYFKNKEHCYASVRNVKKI
Test: Inhibition of Staphylococcus aureus RN6390B Agr-mediated RNA3 promoter activation measured up to 6 hrs by Northern blot analysis

`CCCCCCCCCC(=O)CC(=O)N[C@H]1CCOC1=O` was tested, and the IC50 was 6 µM.
